Test results as given in patent US6613747B2, “6-O-carbamoyl ketolide antibacterials” (Ortho-McNeil Pharmaceutical, Inc., priority 2000, dated 2003).
Converted amounts (≈) assume the structure as drawn.

Experiments:
Assay in all cases: MIC, microdilution broth method (NCCLS)
Type in all cases: cell-based
E. coli OC2605 = settings: A: E. coli OC2605, 35° C., 16-20 hours
Summary of the method: (§1)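 Growth inhibition was scored visually against compound-free control wells in each tray. Setup: NCCLS broth microdilution, cation-adjusted Mueller-Hinton medium, two-fold dilution series, approx. 5×10^4 CFU/well, 16-20 h at 35° C.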

E. faecalis ATCC29212 = settings: C: E. faecalis ATCC29212, 35° C., 16-20 hours
Summary of the method: as §1

S. aureus ATCC29213 = settings: B: S. aureus ATCC29213, 35° C., 16-20 hours
Summary of the method: as §1

H. influenzae ATCC49247 = settings: E: H. influenzae ATCC49247, 35° C., 16-20 hours
Summary of the method: as §1

S. pneumoniae ATCC49619 = settings: D: S. pneumoniae ATCC49619, 35° C., 16-20 hours
Summary of the method: as §1

Compound | MIC (E. coli OC2605) [µg/mL] | MIC (E. faecalis ATCC29212) | MIC (S. aureus ATCC29213) [µg/mL] | MIC (H. influenzae ATCC49247) [µg/mL] | MIC (S. pneumoniae ATCC49619)
CC[C@H]1OC(=O)[C@H](C)C(=O)[C@H](C)[C@@H](O[C@@H]2O[C@H](C)C[C@H](N(C)C)[C@H]2O)[C@](C)(OC(=O)NCCOCc2ccc(-c3ncccn3)cc2)C[C@@H](C)C(=O)[C@H](C)[C@H]2NC(=O)O[C@@]21C [Compound 107] | >16 | 0.12 µg/mL (≈ 0.141 µM) | 0.25 (≈ 0.293 µM) | 4 (≈ 4.68 µM) | 0.06 µg/mL (≈ 0.0703 µM)
CC[C@H]1OC(=O)[C@H](C)C(=O)[C@H](C)[C@@H](O[C@@H]2O[C@H](C)C[C@H](N(C)C)[C@H]2O)[C@](C)(OC(=O)NCCc2ccccc2)C[C@@H](C)C(=O)[C@H](C)[C@H]2NC(=O)O[C@@]21C [Compound 3] | >16 | 1 µg/mL (≈ 1.34 µM) | 4 (≈ 5.36 µM) | 8 (≈ 10.7 µM) | 0.12 µg/mL (≈ 0.161 µM)
CCC1OC(=O)C(C)(F)C(=O)C(C)C(OC2OC(C)CC(N(C)C)C2O)C(C)(OC(=O)NCC=Cc2cnc3ccccc3c2)CC(C)C(=NO)C(C)C2NC(=O)OC12C (centres unmarked) [Compound 127] | 8 (≈ 9.5 µM) | 0.12 µg/mL (≈ 0.143 µM) | 0.25 (≈ 0.297 µM) | 2 (≈ 2.38 µM) | 0.03 µg/mL (≈ 0.0356 µM)
CC[C@H]1OC(=O)[C@H](C)C(=O)[C@H](C)[C@@H](O[C@@H]2O[C@H](C)C[C@H](N(C)C)[C@H]2O)[C@](C)(OC(=O)NCc2ccc(-n3cccn3)cc2)C[C@@H](C)C(=O)[C@H](C)[C@H]2NC(=O)O[C@@]21C [Compound 7] | 16 (≈ 20.1 µM) | 0.06 µg/mL (≈ 0.0752 µM) | 0.5 (≈ 0.627 µM) | 4 (≈ 5.01 µM) | 0.03 µg/mL (≈ 0.0376 µM)
CC[C@H]1OC(=O)[C@H](C)C(=O)[C@H](C)[C@@H](O[C@@H]2O[C@H](C)C[C@H](N(C)C)[C@H]2O)[C@](C)(OC(=O)NC/C=C/c2ccc(-c3ncccn3)cc2F)C[C@@H](C)C(=O)[C@H](C)[C@H]2NC(=O)O[C@@]21C [Compound 88] | 16 (≈ 18.7 µM) | 0.06 µg/mL (≈ 0.0703 µM) | 0.25 (≈ 0.293 µM) | 8 (≈ 9.37 µM) | 0.06 µg/mL (≈ 0.0703 µM)
CC[C@H]1OC(=O)[C@H](C)C(=O)[C@H](C)[C@@H](O[C@@H]2O[C@H](C)C[C@H](N(C)C)[C@H]2O)[C@](C)(OC(=O)NCCNCc2cnc3ccccc3c2)C[C@@H](C)C(=O)[C@H](C)[C@H]2NC(=O)O[C@@]21C [Compound 114] | >16 | 0.25 µg/mL (≈ 0.303 µM) | 2 (≈ 2.42 µM) | 4 (≈ 4.84 µM) | 0.06 µg/mL (≈ 0.0726 µM)
CC[C@H]1OC(=O)[C@H](C)C(=O)[C@H](C)[C@@H](O[C@@H]2O[C@H](C)C[C@H](N(C)C)[C@H]2O)[C@](C)(OC(=O)NCc2ccc(-n3cccn3)c(F)c2)C[C@@H](C)C(=O)[C@H](C)[C@H]2NC(=O)O[C@@]21C [Compound 59] | >16 | ≦0.25 μg/mL | 0.5 (≈ 0.613 µM) | 4 (≈ 4.9 µM) | 0.03 µg/mL (≈ 0.0368 µM)
CC[C@H]1OC(=O)[C@H](C)C(=O)[C@H](C)[C@@H](O[C@@H]2O[C@H](C)C[C@H](N(C)C)[C@H]2O)[C@](C)(OC(=O)NC/C=C/c2cccc(-n3cncn3)n2)C[C@@H](C)C(=O)[C@H](C)[C@H]2NC(=O)O[C@@]21C [Compound 51] | >16 | 0.12 µg/mL (≈ 0.145 µM) | 0.5 (≈ 0.605 µM) | 8 (≈ 9.69 µM) | 0.06 µg/mL (≈ 0.0726 µM)
CC[C@H]1OC(=O)[C@H](C)C(=O)[C@H](C)[C@@H](O[C@@H]2O[C@H](C)C[C@H](N(C)C)[C@H]2O)[C@](C)(OC(=O)NC/C=C/c2ccc(-n3cccn3)cc2F)C[C@@H](C)C(=O)[C@H](C)[C@H]2NC(=O)O[C@@]21C [Compound 74] | 16 (≈ 19 µM) | 0.06 µg/mL (≈ 0.0713 µM) | 0.06 (≈ 0.0713 µM) | 1 (≈ 1.19 µM) | ≦0.015 μg/mL
CC[C@H]1OC(=O)[C@H](C)C(=O)[C@H](C)[C@@H](O[C@@H]2O[C@H](C)C[C@H](N(C)C)[C@H]2O)[C@](C)(OC(=O)NCCCc2ccccc2)C[C@@H](C)C(=O)[C@H](C)[C@H]2NC(=O)O[C@@]21C [Compound 2] | 16 (≈ 21.1 µM) | 0.25 µg/mL (≈ 0.329 µM) | 1 (≈ 1.32 µM) | 2 (≈ 2.63 µM) | 0.06 µg/mL (≈ 0.079 µM)
CCC1OC(=O)C(C)(F)C(=O)C(C)C(OC2OC(C)CC(N(C)C)C2O)C(C)(OC(=O)NCC=Cc2ccnc(Br)c2)CC(C)C(=NO)C(C)C2NC(=O)OC12C (centres unmarked) [Compound 130] | 8 (≈ 9.19 µM) | 0.12 µg/mL (≈ 0.138 µM) | 0.25 (≈ 0.287 µM) | 0.5 (≈ 0.574 µM) | ≦0.015 μg/mL
CC[C@H]1OC(=O)[C@H](C)C(=O)[C@H](C)[C@@H](O[C@@H]2O[C@H](C)C[C@H](N(C)C)[C@H]2O)[C@](C)(OC(=O)NCc2ccc(-n3ccnc3)cc2)C[C@@H](C)C(=O)[C@H](C)[C@H]2NC(=O)O[C@@]21C [Compound 8] | 16 (≈ 20.1 µM) | 0.12 µg/mL (≈ 0.15 µM) | 1 (≈ 1.25 µM) | 4 (≈ 5.01 µM) | 0.03 µg/mL (≈ 0.0376 µM)
CC[C@H]1OC(=O)[C@H](C)C(=O)[C@H](C)[C@@H](O[C@@H]2O[C@H](C)C[C@H](N(C)C)[C@H]2O)[C@](C)(OC(=O)NCc2ccc(Oc3ncccn3)cc2)C[C@@H](C)C(=O)[C@H](C)[C@H]2NC(=O)O[C@@]21C [Compound 83] | >16 | 0.25 µg/mL (≈ 0.303 µM) | 2 (≈ 2.42 µM) | 8 (≈ 9.69 µM) | 0.06 µg/mL (≈ 0.0726 µM)
CC[C@H]1OC(=O)[C@H](C)C(=O)[C@H](C)[C@@H](O[C@@H]2O[C@H](C)C[C@H](N(C)C)[C@H]2O)[C@](C)(OC(=O)NC/C=C/c2ccc(Oc3ncccn3)cc2)C[C@@H](C)C(=O)[C@H](C)[C@H]2NC(=O)O[C@@]21C [Compound 86] | >16 | 0.12 µg/mL (≈ 0.141 µM) | 0.5 (≈ 0.587 µM) | 8 (≈ 9.39 µM) | 0.06 µg/mL (≈ 0.0704 µM)
CCC1OC(=O)C(C)(F)C(=O)C(C)C(OC2OC(C)CC(N(C)C)C2O)C(C)(OC(=O)NCC=Cc2cn(-c3ncccn3)cn2)CC(C)C(=NO)C(C)C2NC(=O)OC12C (centres unmarked) [Compound 124] | 16 (≈ 18.6 µM) | 0.12 µg/mL (≈ 0.14 µM) | 0.25 (≈ 0.291 µM) | 4 (≈ 4.66 µM) | 0.03 µg/mL (≈ 0.0349 µM)
CC[C@H]1OC(=O)[C@H](C)C(=O)[C@H](C)[C@@H](O[C@@H]2O[C@H](C)C[C@H](N(C)C)[C@H]2O)[C@](C)(OC(=O)NCc2ccc(-c3ccc([N+](=O)[O-])cn3)cc2)C[C@@H](C)C(=O)[C@H](C)[C@H]2NC(=O)O[C@@]21C [Compound 42] | 16 (≈ 18.7 µM) | 0.12 µg/mL (≈ 0.141 µM) | 0.5 (≈ 0.586 µM) | 1 (≈ 1.17 µM) | 0.12 µg/mL (≈ 0.141 µM)
CC[C@H]1OC(=O)[C@H](C)C(=O)[C@H](C)[C@@H](O[C@@H]2O[C@H](C)C[C@H](N(C)C)[C@H]2O)[C@](C)(OC(=O)NCc2ccc(-c3ncccn3)cc2F)C[C@@H](C)C(=O)[C@H](C)[C@H]2NC(=O)O[C@@]21C [Compound 87] | 16 (≈ 19.3 µM) | 0.06 µg/mL (≈ 0.0725 µM) | 0.25 (≈ 0.302 µM) | 4 (≈ 4.83 µM) | 0.03 µg/mL (≈ 0.0362 µM)
CC[C@H]1OC(=O)[C@H](C)C(=O)[C@H](C)[C@@H](O[C@@H]2O[C@H](C)C[C@H](N(C)C)[C@H]2O)[C@](C)(OC(=O)NC/C=C/c2ccc(-n3cccn3)c(OC)c2)C[C@@H](C)C(=O)[C@H](C)[C@H]2NC(=O)O[C@@]21C [Compound 84] | >16 | 0.12 µg/mL (≈ 0.141 µM) | 0.25 (≈ 0.293 µM) | 4 (≈ 4.68 µM) | 0.06 µg/mL (≈ 0.0703 µM)
CC[C@H]1OC(=O)[C@H](C)C(=O)[C@H](C)[C@@H](O[C@@H]2O[C@H](C)C[C@H](N(C)C)[C@H]2O)[C@](C)(OC(=O)NCCCc2ccc(N(C)C)cc2)C[C@@H](C)C(=O)[C@H](C)[C@H]2NC(=O)O[C@@]21C [Compound 14] | >16 | 0.5 µg/mL (≈ 0.623 µM) | 8 (≈ 9.96 µM) | >16 | 0.12 µg/mL (≈ 0.149 µM)
CC[C@H]1OC(=O)[C@H](C)C(=O)[C@H](C)[C@@H](O[C@@H]2O[C@H](C)C[C@H](N(C)C)[C@H]2O)[C@](C)(OC(=O)NCCN(C)Cc2cccnc2)C[C@@H](C)C(=O)[C@H](C)[C@H]2NC(=O)O[C@@]21C [Compound 118] | >16 | 1 µg/mL (≈ 1.27 µM) | 8 (≈ 10.1 µM) | 16 (≈ 20.3 µM) | 0.12 µg/mL (≈ 0.152 µM)
CC[C@H]1OC(=O)[C@H](C)C(=O)[C@H](C)[C@@H](O[C@@H]2O[C@H](C)C[C@H](N(C)C)[C@H]2O)[C@](C)(OC(=O)NC/C=C/c2ccc(-c3ccnn3C)cc2)C[C@@H](C)C(=O)[C@H](C)[C@H]2NC(=O)O[C@@]21C [Compound 44] | >16 | 0.12 µg/mL (≈ 0.143 µM) | 0.25 (≈ 0.298 µM) | 2 (≈ 2.39 µM) | 0.12 µg/mL (≈ 0.143 µM)
CC[C@H]1OC(=O)[C@H](C)C(=O)[C@H](C)[C@@H](O[C@@H]2O[C@H](C)C[C@H](N(C)C)[C@H]2O)[C@](C)(OC(=O)NCC#Cc2ccccc2)C[C@@H](C)C(=O)[C@H](C)[C@H]2NC(=O)O[C@@]21C [Compound 13] | >16 | 0.25 µg/mL (≈ 0.331 µM) | 1 (≈ 1.32 µM) | 8 (≈ 10.6 µM) | 0.06 µg/mL (≈ 0.0794 µM)
